Article PMC10051608, “Multi-Compartmental Dissolution Method, an Efficient Tool for the Development of Enhanced Bioavailability Formulations Containing Poorly Soluble Acidic Drugs” (Pharmaceutics, 2023)
In brackets after ≈: the same amount, converted by molar mass.

How the values were obtained:
[1] = pH-dependent equilibrium solubility, saturation shake-flask method in Britton-Robinson buffers and 1 M NaOH; format: physicochemical; conditions: 37 °C; for solubility thermodynamic at 6 h: aqueous buffer, thermodynamic from solid, mean of 3, read-out: SpH ± SD
Experimental: The saturation shake–flask method was used to determine the equilibrium solubility of the API [34, 35]. The measurements were carried out at 37 ± 0.1 °C. […] In case it was necessary, the pH was adjusted to the initial value with 1M NaOH solution after 1 h. The flasks were then placed in a GFL 1092 type shaking water bath (GFL GmbH, Burgwedel, Germany) and shaken at 150 rpm for 6 h. The agitation phase was followed by 18 h sedimentation at controlled temperature. A total of 3 aliquot (10–100 µL) samples were then taken from the saturated solution and diluted to the required extent (2–250x) with the tested medium. The concentration was measured by UV spectroscopy at λmax: 264 nm. […] In each medium, the solubility experiments were performed in triplicate.

[2] = Equilibrium solubility in biorelevant media, saturation shake-flask method; format: physicochemical; conditions: for solubility thermodynamic at 6 h: thermodynamic from solid, read-out: SpH ± SD; for increase in solubility: biorelevant media
Experimental: The saturation shake–flask method was used to determine the equilibrium solubility of the API [34, 35]. The measurements were carried out at 37 ± 0.1 °C. […] In case it was necessary, the pH was adjusted to the initial value with 1M NaOH solution after 1 h. The flasks were then placed in a GFL 1092 type shaking water bath (GFL GmbH, Burgwedel, Germany) and shaken at 150 rpm for 6 h. The agitation phase was followed by 18 h sedimentation at controlled temperature. A total of 3 aliquot (10–100 µL) samples were then taken from the saturated solution and diluted to the required extent (2–250x) with the tested medium. The concentration was measured by UV spectroscopy at λmax: 264 nm. […] In each medium, the solubility experiments were performed in triplicate. […] The equilibrium solubility was also investigated in biorelevant media modelling gastric and small intestinal fluid in a fasted and fed state with and without solubilizing agents (pepsin or lecithin and bile acid salts). The tested biorelevant media were Blank FaSSGF, FaSSGF, Blank FaSSIF, FaSSIF, FeSSGF-acetate (without milk), Blank FeSSIF, and FeSSIF.

[3] = literature data measured at 25 °C; cited from earlier work

solubility thermodynamic at 6 h ([1]; BR (Britton-Robinson) buffer, pH 1.92 (nominal pH 2.0) BR buffer): 0.0708 ± 0.003 mg/mL (≈ 0.343 mM) | solubility thermodynamic at 6 h ([1]; BR (Britton-Robinson) buffer, pH 3.96 BR buffer): 0.124 ± 0.013 mg/mL (≈ 0.601 mM) | solubility thermodynamic at 6 h ([1]; BR (Britton-Robinson) buffer, pH 5.95 BR buffer): 1.91 ± 0.07 mg/mL (≈ 9.26 mM) | solubility thermodynamic at 6 h ([1]; BR (Britton-Robinson) buffer, pH 7.17 BR buffer): 32 mg/mL (≈ 155 mM) | solubility thermodynamic at 6 h ([1]; BR (Britton-Robinson) buffer, pH 8.02 BR buffer): 300 mg/mL (≈ 1450 mM) | solubility thermodynamic at 6 h ([1]; pH 14, 1 M NaOH): 734 mg/mL (≈ 3560 mM) | logSpH ([1]; pH 1.92 (nominal pH 2.0) BR buffer): −3.46 mol/L | logSpH ([1]; pH 3.96 BR buffer): −3.22 mol/L | logSpH ([1]; pH 5.95 BR buffer): −2.03 mol/L | logSpH ([1]; pH 7.17 BR buffer): −0.81 mol/L | logSpH ([1]; pH 8.02 BR buffer): 0.16 mol/L | logSpH ([1]; pH 14, 1 M NaOH): 0.55 mol/L | solubility thermodynamic at 6 h ([2]; FeSSGF-acetate (without milk), fassgf or other biorelevant, FeSSGF-acetate, pH 4.5, 37 °C): 194 ± 2 µg/mL (≈ 0.94 mM) | increase in solubility ([2]; changing the pH from 1.6 to 4.5): 3.4 fold | increase in solubility ([2]; changing the pH from 1.6 to 5.0): 7.4 fold | increase in solubility ([2]; changing the pH from 1.6 to 6.5): 44.6 fold | solubility thermodynamic at 6 h ([2]; fassgf or other biorelevant, FeSSIF blank, pH 5.0, 37 °C): 416 ± 12 µg/mL (≈ 2.02 mM) | effect of pepsin on solubility ([2]; gastric pH): no effect | solubility thermodynamic at 6 h ([2]; FaSSIF, pH 6.5, 37 °C): 3160 ± 31 µg/mL (≈ 15.3 mM) | solubility thermodynamic at 6 h ([2]; FeSSIF, pH 5.0, 37 °C): 2100 ± 56 µg/mL (≈ 10.2 mM)
SMILES: CC(C)Cc1ccc(C(C)C(=O)O)cc1 (stereo not drawn) [ibuprofen]
intrinsic solubility logS0 [3]: −3.62
